Laboratory results reported in patent US20150283227A1, “SYNTHETIC ENV PROTEINS” (priority 2012, published 2015).
“And” between values parts separate entries of the source, which are not always exact repeats. Equal values may be shown once. Read-outs that look alike come from different tables or passages of the source. Where a SMILES comes first, the peptide text is derived from it. [ ]: non-standard residue; d: D form. ξ: configuration not given here. Orn(CH(NH2)2) = NC(N)NCCC[C@H](N)C(=O)O; Ile(3ξ) = CCC(C)[C@H](N)C(=O)O; Thr(3ξ) = CC(O)[C@H](N)C(=O)O

Columns and labels:
PG9 = conditions: NMR studies, Man5GlcNAc2-Asn alone; read-out: Kd for binding of PG9; cited from earlier work
CH01 UCA = assay: SPR binding to unmutated ancestor of CH01; parameters: species or system human; conditions: for SPR binding to CH01 UA: Example 1
Description: (§1) Only the V1/V2 mAb CH58 bound to the glycan-deficient (aglycone) peptide (FIG. 9A). V1/V2 bNAbs ([…], CH01) bound weakly to V1/V2 GlcNAc2 peptide (FIG. 9B). In contrast, both bNAbs PG9 and CH01 bound avidly to the glycopeptides, V1/V2 Man3GlcNAc2 and V1/V2 Man5GlcNAc2 (FIGS. 9C and 9D). CH58 bound weakly to both glycopeptides. Each of the mAbs was captured on a human Fc specific IgG directly immobilized on a BIAcore CM5 sensor chip. Each of the V1/V2 peptides (3 min at 50 uL/min) was injected over the mAb captured surface and SPR binding was monitored on a BIAcore 3000 instrument. Non-specific binding of peptides was subtracted following measurement of signal on a surface with a control ant-RSV mab Synagis.
(§2) The binding Kd (disassociation constant) of the UAs ranges from about 0.15 to 0.2 μM.
(§3) V1V2 glycopeptide binding Kd and rate constant measurements were carried out on BIAcore 3000 instruments as described earlier (Alam et al, Immunol. 178(7):4424-4435 (2007), Alam et al, J. Virol. 82(1):115-125 (2008)). Anti-human IgG Fc antibody (Sigma Chemicals) was immobilized on either a CM3 or CM5 (CM3 for kinetics and Kd determination) sensor chip (to minimize non-specific binding of peptides to chip matrix) to about 5000 Resonance Unit (RU) and each antibody was captured to about 100-200 RU on individual flow cells, in addition to one flow cell with the control Synagis mAb on the same sensor chip. Non-specific binding of V1V2 glycopeptide was double-referenced by substracting the control surface and blank buffer flow for each mAb-V1V2 glycopeptide binding interaction. […] SPR curve fitting analysis was performed using global fit of multiple titrations to the 1:1 Langmuir model. All data analysis was performed using the BIAevaluation 4.1 analysis software (GE Healthcare).

[1] = Aqueous solubility in phosphate buffer; type: physicochemical
BnAb CH01 = assay: SPR binding of V1V2 peptides/glycopeptides to captured mAb CH01; parameters: species or system human
PG9 UCA = assay: SPR binding to unmutated ancestor of PG9; parameters: species or system human; conditions: for SPR binding to PG9 UA: Example 1
Description: as §1, §2, §3

BnAb PG9 = type: binding, human
Description: V1V2 glycopeptide binding Kd and rate constant measurements were carried out on a BIAcore 3000 instrument using an anti-human Ig Fc capture assay as described earlier (Alam, S. M.; McAdams, M.; Boren, D.; Rak, M.; Scearce, R. M.; Gao, F.; Camacho, Z. T.; Gewirth, D.; Kelsoe, G.; Chen, P.; Haynes, B. F. J. Immunol. 2007, 178, 4424-4435.). Anti-human IgG Fc antibody (Sigma Chemicals) was immobilized on a CM5 sensor chip to about 10000 response units (RU), and each antibody was captured to about 300 RU. Anti-RSV Synagis mAb was captured on the same sensor chip as a control surface. Non-specific binding and drift in signal was double referenced by subtracting binding to the control surface and blank buffer flow for each of the peptide binding interactions. All curve-fitting analyses were performed using global fit of multiple titrations to the 1:1 Langmuir model. All data analysis was performed using the BIAevaluation 4.1 analysis software (GE Healthcare).

V2 mAb CH58 = assay: SPR binding of V1V2 peptides/glycopeptides to captured V2 mAb CH58; parameters: species or system human
V2 mAb CH59 = assay: SPR binding of V1V2 peptides to captured V2 mAb CH59; parameters: species or system human; conditions: Example 6; peptide oxidized by solubilization in DMSO, 50 ug/mL
Excerpt: FIGS. 42A-42D. Selective binding of V1V2 BnAbs to mannose derivatized V1V2 glycopeptides but not to aglycone or GlcNAc2 V1V2 peptides. SPR curves showing preferential binding of PG9 and CH01 BnAbs to Man5—(FIG. 42A) and Man3—(FIG. 42B) GlcNAc2 V1V2 glycopeptides but not to GlcNAc2 (FIG. 42C) and aglycone (FIG. 42D) peptides. By contrast, V2 mAbs CH58 and CH59 bound to both aglycone ([…]) and GlcNAc2 (FIG. 42D) V1V2 peptides. Each V1V2 peptide was oxidized by solubilization in DMSO and injected over the indicated MAb at 50 ug/mL. Data shown is after reference subtraction of non-specific signal measured over the control mAb (Synagis). Binding data are representative of at least three experiments for Man5 and Man3 V1V2 peptides and two experiments for GlcNAc2 and aglycone V1V2.
V1V2 glycopeptide binding Kd and rate constant measurements were carried out on BIAcore 3000 instruments as described earlier (Alam et al, Immunol. 178(7):4424-4435 (2007), Alam et al, J. Virol. 82(1):115-125 (2008)). Anti-human IgG Fc antibody (Sigma Chemicals) was immobilized on either a CM3 or CM5 (CM3 for kinetics and Kd determination) sensor chip (to minimize non-specific binding of peptides to chip matrix) to about 5000 Resonance Unit (RU) and each antibody was captured to about 100-200 RU on individual flow cells, in addition to one flow cell with the control Synagis mAb on the same sensor chip. […]

697D = assay: SPR binding to conformational V2 mAb 697D; conditions: Example 1
CH58 UCA = assay: SPR binding to unmutated ancestor of CH58; parameters: species or system human; conditions: Example 1
Description: as §1, §3

[2] = listed as V1V2 aglycone peptide
[3] = Example 6, peptide solubilized/oxidized in DMSO, 50 μg/mL

CC(=O)N[C@@H]1[C@@H](O)[C@H](O[C@@H]2O[C@H](CO)[C@@H](O[C@@H]3O[C@H](CO[C@H]4O[C@H](CO[C@H]5O[C@H](CO)[C@@H](O)[C@H](O)[C@@H]5O)[C@@H](O)[C@H](O[C@H]5O[C@H](CO)[C@@H](O)[C@H](O)[C@@H]5O)[C@@H]4O)[C@@H](O)[C@H](O[C@H]4O[C@H](CO)[C@@H](O)[C@H](O)[C@@H]4O)[C@@H]3O)[C@H](O)[C@H]2NC(C)=O)[C@@H](CO)O[C@H]1NC(=O)C[C@H](N)C(=O)O [Man5GlcNAc2-Asn]
Kd (PG9): 1000 to 2000 µM and 1600 µM

CCC(C)[C@H](NC(=O)[C@@H]1CCCN1C(=O)[C@@H](NC(=O)[C@@H](NC(=O)[C@H](CC(=O)O)NC(=O)[C@H](CC(C)C)NC(=O)[C@H](CCCCN)NC(=O)[C@H](Cc1ccc(O)cc1)NC(=O)[C@H](Cc1ccccc1)NC(=O)[C@H](CC(C)C)NC(=O)[C@H](C)NC(=O)[C@H](Cc1cnc[nH]1)NC(=O)[C@@H](NC(=O)[C@H](CCCCN)NC(=O)[C@H](CCC(N)=O)NC(=O)[C@H](CCCCN)NC(=O)[C@H](CCCCN)NC(=O)[C@H](CC(=O)O)NC(=O)[C@H](CCCNC(=N)N)NC(=O)[C@H](CC(C)C)NC(=O)[C@H](CCC(=O)O)NC(=O)[C@@H](NC(=O)[C@@H](NC(=O)[C@H](CCSC)NC(=O)[C@H](CC(N)=O)NC(=O)[C@H](Cc1ccccc1)NC(=O)[C@H](CO)NC(=O)[C@H](CS)NC(=O)[C@H](CC(N)=O)NC(=O)[C@H](CCCNC(N)N)NC(=O)[C@@H](NC(=O)[C@H](CCC(=O)O)NC(=O)[C@H](CC(=O)O)NC(=O)[C@@H](NC(=O)[C@@H](NC(C)=O)C(C)CC)C(C)O)C(C)C)C(C)O)C(C)O)C(C)C)C(C)CC)C(C)C)C(N)=O (stereo partly drawn) [Aglycone V1V2] (Ac-[Ile(3ξ)][Thr(3ξ)]DEV[Orn(CH(NH2)2)]NCSFNM[Thr(3ξ)][Thr(3ξ)]ELRDKKQKVHALFYKLD[Ile(3ξ)]VP[Ile(3ξ)]-NH2)
SPR binding to CH01 UA (CH01 UCA): not to the aglycone peptide
SPR binding to CH01 UA (CH01 UCA; [2]): no binding
SPR binding to CH01 UCA (CH01 UCA; Example 6): neither UCAs bound
aqueous solubility [1]: Poor aqueous solubility
SPR binding to CH01 (BnAb CH01; Example 1, peptide injected over captured mAb): not to the aglycone peptide
SPR binding to CH01 (BnAb CH01; [3]): no binding
SPR binding to PG9 UA (PG9 UCA): not to the aglycone peptide
SPR binding to PG9 UA (PG9 UCA; [2]): no binding
SPR binding to PG9 UCA (PG9 UCA; Example 6): neither UCAs bound
SPR binding to PG9 (BnAb PG9; Example 5, peptides 200 μg/mL, glycans 25 μg/mL over captured PG9): not detected
SPR binding to PG9 (BnAb PG9; Example 5, peptides 200 μg/mL, glycans 25 μg/mL over captured PG9, listed as V1V2 aglycone): minimal to no binding
SPR binding to PG9 (BnAb PG9; [3]): no binding
SPR binding to CH58 (V2 mAb CH58; Example 1, antigen injected over captured mAb): bound
SPR binding to CH58 (V2 mAb CH58; Example 6, peptide solubilized/oxidized in DMSO, 1-50 μg/mL): retained
SPR binding to CH59 (V2 mAb CH59): bound
SPR binding to 697D (697D): not to the aglycone peptide
SPR binding to CH58 UA (CH58 UCA): no binding
